Assay results as given in patent US9463189B2 (BPV Holdings, LLC, priority 2007, dated 2016).
Structures can show the parent of a compound that is named as a salt.

Experiments:
[1] = system: PPAR; conditions: shown in US2006/0167012A1 and US2006/0205736A1; cited from earlier work
[2] = system: MCP-1; test: MCP-1 in plasma and liver lysates (immunoassay); type: in vivo, C57B1/6J mice
Procedure: (§1) Following 120-150 days on the HFD, mice in the NASH group were treated with Compound 2 (5 or 10 mg/Kg/day) or vehicle (10% Encapsin) for 42 days. Fasting and post prandial (PP) blood draws were taken at the beginning of the study (compound treatment) to identify and confirm the NASH group and during the study to evaluate various pharmacological responses. Since the NASH mice are severely hyperinsulinemic compared to NC mice, glucose tolerance testing (GTT, measures peripheral insulin resistance) was performed to evaluate the effect of Compound 2 on improvement of peripheral insulin sensitivity. Treatment was administered for 42 days (separate experiments). Body weight and food intake was measured throughout the study.
(§2) Insulin fasting plasma samples were tested using Mercodia ultra sensitive mouse insulin ELISA: 2.5 μL EDTA plasma, ALPCO Diagnostics, Uppsala, Sweden, Cat #08-10-1150-99, LOQ (0.22-7.1 μg/L). Mouse JE/MCP-1 post prandial samples were collected at sacrifice. 12.5 μL EDTA plasma, R & D Systems, Minneapolis, Minn., Cat # MFE00, LOQ (15.6-1000 pg/mL).

[3] = system: NASH mice; test: Glucose tolerance testing (ipGTT) in NASH mice; type: in vivo, C57B1/6J mice
Procedure: as §1, with “Treatment was administered for 42 days (separate experiments).” left out
Mice were then fasted overnight at 1700 hours for an experiment the following morning at 9:30 am. The animals were restrained in a towel to reduce handling stress and blood collection was from tail nick. Heat lamps were turned on 5 minutes prior to blood draws to warm animals slightly facilitating the flow of blood resulting in a decreased collection time. Blood glucose was measured using an Accu-check Compact Monitoring Kit (Roche Diagnostics, Indianapolis, Ind., Cat #3149137). Blood was also collected (˜100 μl) into EDTA microvettes (Sarstedt, Newton, N.C., Cat#16.444.100) for insulin ELISA analysis. After baseline blood collection, 2 g/kg Dextrose (Hospira, Lake Forest, Ill., NDC#0409-6648-02) was administered by intraperitoneal injection followed by glucose readings and blood draws (˜50 ul) at time points of 15, 30, 60, and 120 minutes post glucose challenge. Mice were kept in their home cages in between collection intervals.
as §2

[4] = system: liver of NASH mice; test: Liver gene expression by Affymetrix microarray in NASH mice; type: in vivo, C57B1/6J mice; conditions: liver mRNA, 10 mg/kg/day, 35 days
Procedure: Gene expression was analyzed using Affynmatrix microarray followed by GOBY software analyses. Data (Table 5, below) represent average fold change in gene expression in the Compound 2/vehicle group.
Gene expression was analyzed using Affynmatrix microarray followed by GOBY software analyses. Data (Table 6, below) represent average fold change in gene expression in the Compound 2/vehicle group.
Animals were placed in Surgivet/ANESCO ISOTECY chamber (Vetequip Incorporated, Waukesha, Wis.) filled with Isoflurane (1-chloro-2,2,2-trifluoroethyl difluoromethyl ether, CAS#26675-46-7), USP Liquid for Inhalation (Baxter, Deerfield, Ill., Cat #10019-360-40) for anesthetization. Cardiac blood is taken with BD 1 mL Syringe Tuberculin Slip Tip (Becton, Dickinson & Company, Franklin Lakes, N.J., Cat #309602) with B-D25G 5/8 needle (Becton Dickinson, Franklin Lakes, N.J., Cat #305122) and was saved into Microtainer brand tube with EDTA (Becton, Dickinson and Company, Cat #365973). The heart, liver, kidney, adipose (white and brown) and muscle were collected using fine forceps and fine scissors. Tissues were stored in aluminum foils and flash frozen in liquid nitrogen for further analyses. ˜100 mg of heart, liver, adipose (white) were saved in tubes containing 1 mL RNAlater RNA Stabilization Reagent (Qiagen, Valencia, Calif., Cat #76106) and flash frozen in liquid nitrogen for gene array analyses. The liver, muscle and adipose (white) were fixed in 10% Zinc Formalin (Fisher Diagnostics, Middletown, Va., Cat#032-065, CAS #50-00-0) for histology analyses. In addition, the liver and muscle were frozen in Cryomold Standard Disposable Specimen Mold 25 mm×20 mm×5 mm (Sakura Finetechnical U.S.A., Inc., Torrance, Calif., Cat #4557) with O.C.T Compound (Sakura Finetechnical U.S.A., Inc., Torrance, Calif., Cat #4583) and frozen on dry ice mixed with 2-Methylbutane (Isopentane) (Sigma-Aldrich, St. Louis, Mo., CAS #78-78-4, Cat #270342-2L.
Total RNA was extracted using the RNeasy mini protocol (Qiagen, Cat: 74106), gene array analyses was performed using Mouse Genome 430.2.0 Affymetrix CHIP and VAMPIRE analyses software at the Veterans Affair, UCSD core facility, UCSD, San Diego, Calif.

[5] = oral administration, NASH mice, p<0.05 vs. vehicle

In the case of `C[C@@H]1CN(Cc2ccc(OC(F)(F)F)cc2)C[C@H](C)N1S(=O)(=O)c1cccc2c1C[C@@H](C(=O)O)C2` [Compound 2, (S)-4-[cis-2,6-Dimethyl-4-(4-trifluoromethoxy-benzyl)-piperazine-1-sulfonyl]-indan-2-carboxylic acid tosylate], the PPAR modulator activity [1] is given as “PPAR modulators”, the “reduction of MCP-1 levels in plasma, treated vs. untreated mice” value ([2]; 42 days of 5 mg/kg/day, p<0.006) is given as 34% and the “reduction of MCP-1 levels in the liver lysates, treated vs. untreated mice” value ([2]; 42 days of 5 mg/kg/day, trend, p=0.08) is given as 31%. The “levels of plasma MCP-1” value [2, 5] was “normalized levels”, the “insulin secretion during ipGTT” value ([3]; 21 days, 10 mg/Kg/day, compared to vehicle-treated animals) was “reduced insulin secretion” and the peripheral insulin resistance ([3]; 21 days, 10 mg/Kg/day, ipGTT, compared to vehicle-treated animals) was “improved peripheral insulin resistance”. For the same compound, the glucose disposal [3, 5] was “improved glucose disposal”, the insulin sensitivity [3, 5] was “improved insulin sensitivity” and the “S100 A6 (inflammatory marker) gene expression vs. vehicle” value [4] was “reduction”. For the same compound, the “CD14 (Monocyte/Macrophage marker) gene expression, Fold change over vehicle” value ([4]; 4 hours post dosing, fed state) was −2 fold, the “GADD45 (Inflammatory marker) gene expression, Fold change over vehicle” value ([4]; 4 hours post dosing, fed state) was 8 fold and the “ICAM 1 (Inflammatory marker) gene expression, Fold change over vehicle” value ([4]; 4 hours post dosing, fed state) was −2.1 fold. For the same compound, the “MARCO (Monocyte/Macrophage marker) gene expression, Fold change over vehicle” value ([4]; 4 hours post dosing, fed state) was −2.5 fold, the “Orosomucoid 2 (Acute Phase Reactant Protein) gene expression, Fold change over vehicle” value ([4]; 4 hours post dosing, fed state) was −2.4 fold and the “Serum myeloid A1 (Acute Phase Reactant Protein) gene expression, Fold change over vehicle” value ([4]; 4 hours post dosing, fed state) was −1.9 fold. The “Serum myeloid A2 (Acute Phase Reactant Protein) gene expression, Fold change over vehicle” value ([4]; 4 hours post dosing, fed state) was −2.2 fold, the “CTGF gene expression, Fold change over vehicle” value ([4]; 4 hours post dosing, fed state) was “Not changed” and the “Col1a1 gene expression, Fold change over vehicle” value ([4]; 4 hours post dosing, fed state) was −6.3 fold. For the same compound, the “Col1a2 gene expression, Fold change over vehicle” value ([4]; 4 hours post dosing, fed state) was −3 fold, the “Col3a1 gene expression, Fold change over vehicle” value ([4]; 4 hours post dosing, fed state) was −3 fold and the “Col5a2 gene expression, Fold change over vehicle” value ([4]; 4 hours post dosing, fed state) was −2.2 fold. For the same compound, the “Col6a2 gene expression, Fold change over vehicle” value ([4]; 4 hours post dosing, fed state) was −8.9 fold, the “Fibronectin gene expression, Fold change over vehicle” value ([4]; 4 hours post dosing, fed state) was “Not changed” and the “Timp 1 gene expression, Fold change over vehicle” value ([4]; 4 hours post dosing, fed state) was −4.5 fold. For the same compound, the “Timp 2 gene expression, Fold change over vehicle” value ([4]; 4 hours post dosing, fed state) was “Not changed” and the “Vimentin gene expression, Fold change over vehicle” value ([4]; 4 hours post dosing, fed state) was −2.3 fold.
